In the supplement of paper PMC11451515:

Tested on: NOMO1
Test: cell viability relative to DMSO control; higher = less cytotoxic
Conditions: 48 h
How it was run: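 Leukemia cells (NOMO1 or SEM, 500 cells/well; P12-Ichikawa, 1000 cells/well) were seeded in 5 μl in 1536-well plates after at least four passages of adaptation to each medium. They received library compounds in DMSO by pin dosing, 11 threefold points from 47 μM to 0.79 nM. Luminescence with CellTiter-Glo One was read after 48 h at 37°C. Viability is stated per plate relative to DMSO wells, with cell-free wells as background.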

[1] = HPLM + 10% dialyzed FBS, 0.000781 µM
[2] = HPLM + 10% dialyzed FBS, 0.00234 µM
[3] = HPLM + 10% dialyzed FBS, 0.00702 µM
[4] = HPLM + 10% dialyzed FBS, 0.0211 µM
[5] = HPLM + 10% dialyzed FBS, 0.0632 µM
[6] = HPLM + 10% dialyzed FBS, 0.19 µM
[7] = HPLM + 10% dialyzed FBS, 0.569 µM
[8] = HPLM + 10% dialyzed FBS, 1.71 µM
[9] = HPLM + 10% dialyzed FBS, 5.12 µM
[10] = HPLM + 10% dialyzed FBS, 15.4 µM
[11] = HPLM + 10% dialyzed FBS, 46.1 µM
[12] = RPMI 5 mM glucose + 10% FBS, 0.000781 µM
[13] = RPMI 5 mM glucose + 10% FBS, 0.00234 µM
[14] = RPMI 5 mM glucose + 10% FBS, 0.00702 µM
[15] = RPMI 5 mM glucose + 10% FBS, 0.0211 µM
[16] = RPMI 5 mM glucose + 10% FBS, 0.0632 µM
[17] = RPMI 5 mM glucose + 10% FBS, 0.19 µM
[18] = RPMI 5 mM glucose + 10% FBS, 0.569 µM
[19] = RPMI 5 mM glucose + 10% FBS, 1.71 µM
[20] = RPMI 5 mM glucose + 10% FBS, 5.12 µM
[21] = RPMI 5 mM glucose + 10% FBS, 15.4 µM
[22] = RPMI 5 mM glucose + 10% FBS, 46.1 µM
[23] = RPMI 5 mM glucose + 10% dialyzed FBS, 0.000781 µM
[24] = RPMI 5 mM glucose + 10% dialyzed FBS, 0.00234 µM
[25] = RPMI 5 mM glucose + 10% dialyzed FBS, 0.00702 µM
[26] = RPMI 5 mM glucose + 10% dialyzed FBS, 0.0211 µM
[27] = RPMI 5 mM glucose + 10% dialyzed FBS, 0.0632 µM
[28] = RPMI 5 mM glucose + 10% dialyzed FBS, 0.19 µM
[29] = RPMI 5 mM glucose + 10% dialyzed FBS, 0.569 µM
[30] = RPMI 5 mM glucose + 10% dialyzed FBS, 1.71 µM
[31] = RPMI 5 mM glucose + 10% dialyzed FBS, 5.12 µM
[32] = RPMI 5 mM glucose + 10% dialyzed FBS, 15.4 µM
[33] = RPMI 5 mM glucose + 10% dialyzed FBS, 46.1 µM

Structure (SMILES)	cell viability [1]	cell viability [2]	cell viability [3]	cell viability [4]	cell viability [5]	cell viability [6]	cell viability [7]	cell viability [8]	cell viability [9]	cell viability [10]	cell viability [11]	cell viability [12]	cell viability [13]	cell viability [14]	cell viability [15]	cell viability [16]	cell viability [17]	cell viability [18]	cell viability [19]	cell viability [20]	cell viability [21]	cell viability [22]	cell viability [23]	cell viability [24]	cell viability [25]	cell viability [26]	cell viability [27]	cell viability [28]	cell viability [29]	cell viability [30]	cell viability [31]	cell viability [32]	cell viability [33]
O=C(O)CCNc1cc(N2CCc3ccccc3CC2)nc(-c2ccccn2)n1	111%	133%	115%	138%	140%	123%	111%	116%	117%	94.5%	75.9%	121%	105%	107%	111%	104%	128%	115%	106%	116%	105%	92.9%	121%	123%	124%	128%	127%	121%	136%	111%	117%	97.3%	96.1%
C=CCc1cc(OC)c(O)c(C(=O)NCCO)c1	98.4%	113%	96%	105%	105%	113%	107%	106%	85.7%	81.4%	74.2%	95.3%	112%	103%	96.1%	101%	101%	96.1%	106%	93.4%	101%	87.1%	98.5%	99.5%	104%	106%	109%	98.6%	89.7%	96.7%	87.7%	84%	79.5%
CC(=O)OCC(=O)[C@@]12OC(C)(C)O[C@@H]1C[C@H]3[C@@H]4C[C@H](F)C/5=C/C(=O)/C=C\[C@]5(C)[C@@]4(F)[C@@H](O)C[C@]23C	120%	117%	115%	126%	114%	115%	105%	115%	112%	120%	122%	103%	107%	103%	119%	114%	109%	111%	113%	116%	123%	128%	109%	108%	104%	113%	111%	132%	116%	132%	131%	121%	144%
O=C(C1CC1)N1CC[C@@H](Cn2c(-c3ccc(-c4ccc5occc5c4)cc3)nc3cnccc32)C1	93.7%	128%	117%	112%	122%	135%	121%	134%	117%	123%	82.6%	117%	101%	104%	102%	111%	104%	106%	115%	119%	109%	113%	101%	115%	107%	129%	120%	112%	119%	114%	109%	110%	100%
COc1cccc2c(NCc3ccccc3)nc(-n3c(N)nc4ccccc43)nc12	85.6%	106%	94.9%	110%	129%	105%	115%	107%	107%	97%	18.8%	92.8%	96.2%	105%	105%	117%	107%	106%	101%	101%	102%	16.7%	91.2%	96.2%	119%	111%	111%	108%	103%	112%	100%	97.2%	23.3%
C[C@H]1[C@H](O)O[C@@H]2O[C@@]3(C)CC[C@H]4[C@H](C)CC[C@@H]1[C@@]24OO3	86%	97.3%	81%	92.6%	89.9%	96%	84.4%	58.1%	13.4%	9.81%	15.4%	80.2%	80.5%	93.2%	97.2%	91.9%	92.2%	88%	56.3%	14.9%	7.4%	8.31%	99.8%	96%	92%	85.7%	89%	104%	93.8%	64.4%	17.5%	12.2%	15.6%
C=CC(=O)Nc1cccc(Oc2nc(Nc3ccc(N4CCN(C)CC4)cc3OC)ncc2Cl)c1	64.3%	69.5%	78.3%	79.1%	81.9%	80.6%	73.9%	76.5%	54.7%	45.1%	33.3%	72.9%	74.3%	79.3%	78.8%	87.1%	102%	82.1%	52.1%	67.3%	62.1%	55.8%	69.6%	77.9%	79.4%	85.8%	80.6%	79.2%	77.3%	87.9%	66.1%	72.2%	45.5%
COc1ccc(CC2c3cc(OC)c(OC)cc3CC[N+]2(C)CCC(=O)OCCCCCOC(=O)CC[N+]2(C)CCc3cc(OC)c(OC)cc3C2Cc2ccc(OC)c(OC)c2)cc1OC (stereo not given)	91%	98.8%	116%	98.5%	109%	98.8%	93.6%	92.2%	77.1%	29.9%	7.29%	77.8%	77.8%	85.7%	89.3%	98.6%	93%	85.7%	97.5%	87.5%	65%	8.84%	75.5%	87%	79.2%	93.3%	85.8%	92%	84.6%	90%	70%	67.5%	8.69%
COC/1=C/[C@@H]2[C@@H]3CC4=C(C(=C(OC)C=C4)O)[C@]2(CCN3C)CC1=O	117%	123%	151%	147%	151%	135%	147%	161%	135%	131%	113%	118%	124%	135%	165%	144%	148%	148%	139%	153%	141%	126%											
FC(F)(F)C1=CC=C2C(SCCCCCO\C3=C\O\C(CN4CCOCC4)=C/C3=O)=CC=NC2=C1	96%	122%	144%	119%	122%	139%	137%	128%	131%	124%	107%	116%	124%	107%	103%	118%	135%	118%	121%	122%	112%	109%	99.3%	118%	105%	114%	131%	112%	125%	129%	114%	109%	92.4%
Cc1cc(SCc2sc(-c3ccc(C(F)(F)F)cc3)nc2C)ccc1OCC(=O)O	102%	113%	97.5%	124%	109%	110%	104%	92.3%	102%	94.8%	78.1%	100%	97.1%	85.9%	99.1%	90.3%	95%	90.7%	102%	86.6%	91.4%	81.9%	93.2%	95.1%	101%	108%	92.2%	102%	99.6%	97.7%	101%	89.2%	83.1%
COc1cc(NC(=O)c2ccc(-c3ccc(Cl)cc3)o2)cc(OC)c1	95.5%	103%	112%	112%	114%	118%	112%	104%	61.8%	52.7%	39.6%	91.4%	106%	104%	100%	101%	110%	108%	92.1%	58.7%	74.4%	72.3%	97.5%	111%	108%	108%	111%	115%	109%	94.9%	66.8%	50.7%	62.8%
Nc1nc(Nc2ccc([S+](N)(=O)[O-])cc2)nn1C(=O)c1c(F)cccc1F	94.7%	97.4%	90.6%	113%	105%	109%	102%	107%	120%	66.1%	7.01%	94.7%	87.8%	107%	94%	94.7%	99.3%	93.8%	87.2%	93.2%	50.4%	8.21%	98.7%	86.1%	100%	91.5%	86.9%	92.7%	93.1%	104%	84.4%	49.5%	5.65%
CCc1cccc2c3c([nH]c12)C(CC)(CC(=O)O)OCC3 (stereo not given)	98.5%	98.5%	122%	105%	100%	113%	88.4%	97.8%	97.4%	100%	84.5%	95%	92.7%	95.9%	102%	85%	90.4%	98.1%	93.2%	93.6%	84.7%	87.2%	100%	94.3%	95.1%	87.3%	82.4%	77.7%	89.3%	87.5%	92.9%	82.9%	97.1%
COC(=O)Nc1ccc(-c2nc(N3CCOCC3)c3cnn(C4CCN(Cc5cccnc5)CC4)c3n2)cc1	117%	117%	132%	108%	88.6%	76.4%	70.3%	70.6%	26.3%	19.4%	9.7%	106%	117%	119%	105%	110%	92.4%	88.7%	82.6%	45.4%	32.4%	17.6%											
CCN1\C=C(C(O)=O)/C(=O)C2=C1C=C(N3CCN(C)CC3)C(=C2)F												97.7%	104%	106%	108%	106%	113%	107%	104%	82%	71%	51.9%	123%	112%	112%	154%	157%	77%	71.9%	47.7%	57.6%	58.5%	32.6%
